Columns and labels:
MET = MET (Homo sapiens, UniProt P08581); assay: In vitro kinase assay, MET; assay type: biochemical; conditions: assay as described previously [16]
Description: Enzyme inhibition studies were performed using LANCE® Ultra TR-FRET assay technology. Briefly, 0.03 μg/mL dephospho-rhFMS and 100 nM ULightTM-poly GT (4:1) (PerkinElmer) were mixed and incubated for 40 min at 25°C in 10 μL of reaction mixture containing 100 μM ATP, 15 mM tris (hydroxymethyl) aminomethane (Tris (pH 7.5)), 0.01% (v/v) Tween 20, 5 mM MgCl2, 2 mM dithiothreitol and various concentrations of the test compound. […] By referring to the TR-FRET signals of positive (no inhibitor) and negative (EDTA was added before the reaction was started) control wells, the percent inhibition of each well was calculated and the half-maximal inhibitory concentration (IC50) value was determined using a four-parameter sigmoidal equation. The assay of MET and VEGFR2 kinase activity was performed as described previously.

A549-Luc-BM1 cells = assay: Proliferation of A549-Luc-BM1 cells (CellTiter-Glo); assay type: cell-based; conditions: Homo sapiens, 72 hr post drug addition, read-out: 50% growth inhibitory concentration (GI50) for A549-Luc-BM1 cells
Description: Supplementary file pone.0164830.s002.tif: S2 Fig The effect of TAS-115 on the proliferation of A549-Luc-BM1 cells. A549-Luc-BM1 cells were seeded on 96 well plates at a density of 10^3 cells/well in RPMI1640 containing 10% FBS. […] At 72 hr post drug addition, cell viability was determined using CellTiter-Glo^TM. The 50% growth inhibition (GI50) values were determined using SAS version 9.2. (TIF) Click here for additional data file.

[1] = tested on: A549-Luc-BM1 cells in the mouse tibia; assay: Tumor-induced bone disease model, intra-tibial A549-Luc-BM1, bioluminescence imaging; assay type: in vivo, BALB/c nude mice; conditions: day 28; 4 weeks; oral once daily TAS-115 200 mg/kg, cabozantinib 15 mg/kg, sunitinib 40 mg/kg, crizotinib 100 mg/kg; ZA 0.2 mg/kg s.c. twice weekly
Description: Tumor growth in the tibiae was monitored by bioluminescence imaging using an IVIS Lumina II Imaging System (PerkinElmer, MA). […] Images were analyzed using the Living Image 3.1 software (PerkinElmer). Total photon flux (TP) was calculated by summation of the photon flux of ventral and right lateral images. One week post tumor implantation, 8–9 animals were allocated to each experimental group by a stratified randomization method with SAS version 9.2 (SAS Institute Japan, Tokyo, Japan) using TP as an allocation parameter, following which drug treatment was then started. […] The doses of each drug were selected based on the maximum tolerated dose (MTD) in in-house studies (data not shown). […] Zoledronic acid (ZA) was subcutaneously injected twice weekly for 4 weeks at a dose of 0.2 mg/kg, which was a previously reported efficacious dose. The allocation day was set as day 0, and drug administration was initiated from day 1. As an indicator of changes in tumor growth during the dosing period, relative total photon flux (RTP), was calculated according to the following formula: RTPday n = (TP on each measurement day) / (TPday 0) × 100. TPday 0 is the TP on the allocation day.

[2] = Body weight change in the bone disease model; assay type: in vivo, BALB/c nude mice; conditions: 4 weeks of treatment; TAS-115 200 mg/kg, crizotinib 100 mg/kg, sunitinib 40 mg/kg with crizotinib 100 mg/kg, oral once daily
Description: Changes in body weight (BW) during the dosing period were determined using body weight change (BWC; %) as an indicator, which was calculated using the following formula: BWC; % = 100 × ((BW on each measurement day)–(BWday 0)) / (BWday 0). BWday 0 is the BW on the allocation day. The schedule for the in vivo study is depicted in the Supporting Information (S1 Fig).

[3] = tested on: A549-Luc-BM1-implanted tibiae; assay: CD31 staining, microvessel density in bone lesion; assay type: in vivo, BALB/c nude mice; conditions: 2 weeks oral; TAS-115 100 mg/kg, cabozantinib 15, crizotinib 100, sunitinib 40 mg/kg; vs control
Description: On day 15, the mice were euthanized by cervical dislocation under isoflurane anesthesia, and their tibiae were collected. For CD31 staining, frozen sections (3 μm thick) were prepared using Kawamoto’s film method. Purified Rat Anti-Mouse CD31 (1:100, BD Pharmingen^TM) was detected using Simple Stain^TM Mouse MAX PO (Rat) (Nichirei) and 3,3’-diaminobenzidine (Dako, Glostrup, Denmark). For Ki-67 and TRAP staining, formalin-fixed paraffin-embedded sections (2 μm thick) were prepared. Anti-human Ki-67 Rabbit Monoclonal Antibody (1:50, Epitomics) was detected using the EnVisionTM^+ System (Dako). TRAP staining was performed using the TRAP/ALP Stain Kit (Wako Pure chemical Industries, Ltd.). To quantify each staining, whole slides were scanned under 20× magnification with the Aperio Scan-Scope XT Slide Scanner (Aperio Technologies, Inc., CA). To quantify CD31-positive microvessels as microvessel density (MVD, number/mm^2), four fields of tumor area per section excluding bone and necrotic tissue were analyzed by using Image-Pro Plus (Media Cybernetics, Inc., Carlsbad, CA). The mean values of the four areas were considered as the MVD of each animal. […] Ki-67-positive cells and total tumor cells were counted by using Image-Pro Plus. The Ki-67 index is expressed as a percentage (the number of Ki-67-positive tumor cells / the total number of the tumor cells × 100). The numbers of TRAP-positive osteoclasts were counted, and are expressed as the TRAP-positive osteoclast labeling index, (the number of TRAP-positive cells / the length of the boundary between tumor and trabecular bone (number/mm)). Cells that were TRAP-positive, had more than one nucleus, and were found on the surface of the bone, were identified as osteoclasts. The boundary length was calculated by Image-Pro Plus. All histopathological analyses were conducted in a blinded manner.

[4] = tested on: FMS, ERK1/2 and AKT phosphorylation in MDBMs; assay: In vitro MDBM signaling, M-CSF-stimulated FMS phosphorylation; assay type: cell-based, mouse; conditions: 1 hr incubation, Western blotting
Description: (§1) For analysis of the expression and phosphorylation levels of FMS, MET and VEGFR2, MDBMs were cultured with hM-CSF (20000 U/mL) for 4 days (400000 cells/dish in Suspension Culture Dishes (Corning Inc., NY). The phosphorylation levels of FMS and downstream signaling molecules were then analyzed in these MDBMs following incubation for 1 hr with test compounds at the indicated concentration. The phosphorylation of MET or VEGFR2 was analyzed in these MDBMs following stimulation with rhHGF (100 ng/mL, 10 min) or rhVEGF (100 ng/mL, 5 min), respectively. After incubation, the MDBMs were harvested, the cells were lysed and target signaling proteins were detected by immunoblotting. For analysis of VEGFR2 and its phosphorylated form, the lysate was immunoprecipiated with an anti-VEGFR antibody prior to immunoblotting.

[5] = tested on: MET phosphorylation in MDBMs; assay: In vitro MDBM signaling, rhHGF-induced MET phosphorylation; assay type: cell-based, mouse; conditions: rhHGF 100 ng/mL 10 min, Western blotting
Description: as §1

MET, sequence (P08581 25-1390): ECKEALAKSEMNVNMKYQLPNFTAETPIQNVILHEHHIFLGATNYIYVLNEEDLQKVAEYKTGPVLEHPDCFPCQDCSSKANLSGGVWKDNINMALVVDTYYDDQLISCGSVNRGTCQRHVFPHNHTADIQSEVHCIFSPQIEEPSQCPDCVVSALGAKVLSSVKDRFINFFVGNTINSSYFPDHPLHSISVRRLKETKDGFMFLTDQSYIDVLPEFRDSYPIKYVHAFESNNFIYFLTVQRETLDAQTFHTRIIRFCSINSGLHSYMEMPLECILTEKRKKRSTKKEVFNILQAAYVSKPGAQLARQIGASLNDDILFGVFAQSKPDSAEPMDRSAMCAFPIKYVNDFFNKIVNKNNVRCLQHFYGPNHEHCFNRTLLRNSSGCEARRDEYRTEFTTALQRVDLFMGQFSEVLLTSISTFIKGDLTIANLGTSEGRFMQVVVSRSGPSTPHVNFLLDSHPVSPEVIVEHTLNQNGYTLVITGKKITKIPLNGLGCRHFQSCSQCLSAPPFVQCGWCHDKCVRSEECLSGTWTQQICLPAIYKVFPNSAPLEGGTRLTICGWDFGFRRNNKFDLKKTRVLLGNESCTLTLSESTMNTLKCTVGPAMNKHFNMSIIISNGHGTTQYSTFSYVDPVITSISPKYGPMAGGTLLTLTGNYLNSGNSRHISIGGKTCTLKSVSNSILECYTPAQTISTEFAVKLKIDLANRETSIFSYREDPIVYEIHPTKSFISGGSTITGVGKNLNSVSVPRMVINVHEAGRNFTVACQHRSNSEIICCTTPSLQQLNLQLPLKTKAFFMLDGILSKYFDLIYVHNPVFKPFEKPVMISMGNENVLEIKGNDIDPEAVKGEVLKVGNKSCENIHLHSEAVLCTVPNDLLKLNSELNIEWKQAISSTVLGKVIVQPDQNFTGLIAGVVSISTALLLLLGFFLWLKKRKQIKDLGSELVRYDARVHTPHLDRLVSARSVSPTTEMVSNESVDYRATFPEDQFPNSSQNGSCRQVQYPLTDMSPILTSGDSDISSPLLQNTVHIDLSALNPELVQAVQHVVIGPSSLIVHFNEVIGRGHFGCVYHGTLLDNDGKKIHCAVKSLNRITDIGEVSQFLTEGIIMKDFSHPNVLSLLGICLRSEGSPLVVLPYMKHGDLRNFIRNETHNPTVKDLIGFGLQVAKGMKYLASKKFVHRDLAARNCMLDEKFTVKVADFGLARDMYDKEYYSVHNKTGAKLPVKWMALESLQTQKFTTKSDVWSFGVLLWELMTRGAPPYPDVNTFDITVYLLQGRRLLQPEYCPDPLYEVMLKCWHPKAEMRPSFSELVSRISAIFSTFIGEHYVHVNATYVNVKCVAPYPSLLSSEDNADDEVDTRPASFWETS

IC50 (MET): 0.032 µM | GI50 (A549-Luc-BM1 cells): 11.2 µM
SMILES: CNC(=O)c1cc2c(Oc3ccc(NC(=S)NC(=O)Cc4ccccc4)cc3F)ccnc2cc1OC [TAS-115, 4-[2-fluoro-4-[[[(2-phenylacetyl)amino]thioxomethyl]amino]-phenoxy] -7-methoxy-N-methyl-6-quinolinecarboxamide]
tumor growth inhibition percentage (TGI) [1]: 85% | effect on body weight [2]: did not cause body weight loss | microvessel density (MVD) within the tumor area in the bone lesion [3]: significantly reduced | concentration markedly inhibiting M-CSF-stimulated phosphorylation of FMS, ERK1/2 and AKT [4]: greater than 0.03 μM | concentration inhibiting the phosphorylation of MET [5]: greater than 0.03 μM

From PMC5063576, “High Potency VEGFRs/MET/FMS Triple Blockade by TAS-115 Concomitantly Suppresses Tumor Progression and Bone Destruction in Tumor-Induced Bone Disease Model with Lung Carcinoma Cells” (PLoS ONE, 2016)
